Like-named read-outs stand apart in the source and are kept apart here.
Legend:
[1] = tested on: Enterococcus faecalis EFS.201 (ATCC 49452); format: cell-based
Procedure: (§1) Compounds according to Formula I were tested for antimicrobial activity against a panel of organisms. Aerobic organisms, Staphylococcus aureus, Enterococcus faecalis and E. faecium, were tested by broth microdilution according to Clinical and Laboratory Standards Institute (CLSI) document M7-A7 (Clinical and Laboratory Standards Institute. Methods for Dilution Antimicrobial Susceptibility Tests for Bacteria that Grow Aerobically; Approved Standard—Seventh Edition. CLSI document M7-A7 [ISBN 1-56238-587-9]. Clinical and Laboratory Standards Institute, 940 West Valley Road, Suite 1400, Wayne, Pa. 19087-1898 USA, 2006) with modifications as described below. Mueller Hinton Broth (MHBc) was supplemented with 50 mg/L calcium (equivalent to human physiological levels of calcium) and assay plates were incubated 18-20 hours at 37° C. with aeration (200 rpm).
(§2) In all cases the final concentration of dimethyl sulfoxide incubated with cells is less than or equal to 1%. For minimum inhibitory concentration (MIC) calculations, 2-fold dilutions of compounds were added to wells of a microtiter plate containing 5×10^5 bacteria in a final volume of 100 μL of media. Following incubation, (18-20 hours at 37° C. with aeration at 200 rpm) growth was confirmed visually by placing plates over a viewing apparatus (stand with a mirror underneath) and then the optical density (OD600) was measured using a SpectraMax 340PC^384 plate reader. Growth was defined as turbidity that could be detected with the naked eye or achieving minimum OD600of 0.1. MIC values (in μg/mL) were defined as the lowest concentration producing no visible turbidity.

[2] = tested on: Enterococcus faecalis EFS.312, Daptomycin resistant mutant (EFA); format: cell-based; conditions: MHBc with 50 mg/L calcium, 18-20 hours at 37° C.
Procedure: as §1, §2

[3] = tested on: Staphylococcus aureus SAU.278, Daptomycin resistant mutant (D10); format: cell-based; conditions: MHBc with 50 mg/L calcium, 18-20 hours at 37° C.
Procedure: as §1, §2

[4] = tested on: Staphylococcus aureus SAU.399 (ATCC 43300), Methicillin and Oxacillin Resistant; format: cell-based; conditions: ATCC 43300
Procedure: as §1, §2

[5] = tested on: Staphylococcus aureus SAU.42 (ATCC 29213); format: cell-based
Procedure: as §1, §2

[6] = tested on: Enterococcus faecium EFM.14 (ATCC 6569); format: cell-based
Procedure: as §1, §2

[7] = tested on: Enterococcus faecium EFM.384, Daptomycin resistant mutant (14-A); format: cell-based; conditions: MHBc with 50 mg/L calcium, 18-20 hours at 37° C.
Procedure: as §1, §2

[8] = MHBc with 50 mg/L calcium, 18-20 hours at 37° C.

SMILES	Efs201 MIC ([1]; ATCC 49452) [µg/mL]	Efs312 MIC [2] [µg/mL]	Sa278 MIC [3] [µg/mL]	Sa399 MIC [4] [µg/mL]	Sa42 MIC ([5]; ATCC 29213) [µg/mL]	Efm14 MIC ([6]; ATCC 6569) [µg/mL]	Efm384 MIC [7] [µg/mL]	C. diff MIC90 (Clostridium difficile) [µg/mL]	Efs201 MIC [1, 8] [µg/mL]	Efm14 MIC [6, 8] [µg/mL]	Sa42 MIC [5, 8] [µg/mL]
CCCCCC1CCC([C@H]2CC[C@H](C(=O)N[C@@H](Cc3c[nH]c4ccccc34)C(=O)N[C@H](CC(N)=O)C(=O)N[C@@H](CC(=O)O)C(=O)N[C@@H]3C(=O)NCC(=O)N[C@@H](CCCN)C(=O)N[C@@H](CC(=O)O)C(=O)N[C@H](C)C(=O)N[C@@H](CC(=O)O)C(=O)NCC(=O)N[C@H](CO)C(=O)N[C@@H]([C@H](C)CC(=O)O)C(=O)N[C@@H](CC(=O)c4ccccc4N)C(=O)O[C@@H]3C)CC2)CC1 (some centres unmarked) [Compound 20]	0.5	4	8	2	0.5						
CCCCCCCCC(=O)N[C@@H](Cc1c[nH]c2ccccc12)C(=O)N[C@H](CC(N)=O)C(=O)N[C@@H](CC(=O)O)C(=O)N[C@@H]1C(=O)NCC(=O)N[C@@H](CCCN)C(=O)N[C@@H](CC(=O)O)C(=O)N[C@H](C)C(=O)N[C@@H](CC(=O)O)C(=O)NCC(=O)N[C@H](CO)C(=O)N[C@@H]([C@H](C)CC(=O)O)C(=O)N[C@@H](CC(=O)c2ccccc2N)C(=O)O[C@@H]1C [Compound 1]	32	>32	>32	2	8	32	>32				
C[C@H](CC(=O)O)[C@@H]1NC(=O)[C@@H](CO)NC(=O)CNC(=O)[C@H](CC(=O)O)NC(=O)[C@@H](C)NC(=O)[C@H](CC(=O)O)NC(=O)[C@H](CCCN)NC(=O)CNC(=O)[C@@H](NC(=O)[C@H](CC(=O)O)NC(=O)[C@@H](CC(N)=O)NC(=O)[C@H](Cc2c[nH]c3ccccc23)NC(=O)Cc2ccc(-c3ccc(Cl)cc3)cc2)[C@@H](C)OC(=O)[C@H](CC(=O)c2ccccc2N)NC1=O [Compound 65]	8	>32	16	2	2	8	>32				
C[C@H](CC(=O)O)[C@@H]1NC(=O)[C@@H](CO)NC(=O)CNC(=O)[C@H](CC(=O)O)NC(=O)[C@@H](C)NC(=O)[C@H](CC(=O)O)NC(=O)[C@H](CCCN)NC(=O)CNC(=O)[C@@H](NC(=O)[C@H](CC(=O)O)NC(=O)[C@@H](CC(N)=O)NC(=O)[C@H](Cc2c[nH]c3ccccc23)NC(=O)c2ccc(-c3ccc(Cl)cc3)cc2)[C@@H](C)OC(=O)[C@H](CC(=O)c2ccccc2N)NC1=O [Compound 68]	16	>32	32		4	16	>32	16			
CC(C)C1CCC(CCCC(=O)N[C@@H](Cc2c[nH]c3ccccc23)C(=O)N[C@H](CC(N)=O)C(=O)N[C@@H](CC(=O)O)C(=O)N[C@@H]2C(=O)NCC(=O)N[C@@H](CCCN)C(=O)N[C@@H](CC(=O)O)C(=O)N[C@H](C)C(=O)N[C@@H](CC(=O)O)C(=O)NCC(=O)N[C@H](CO)C(=O)N[C@@H]([C@H](C)CC(=O)O)C(=O)N[C@@H](CC(=O)c3ccccc3N)C(=O)O[C@@H]2C)CC1 (some centres unmarked) [Compound 21]	0.25	32	2	1	0.063						
CCCCCCCCCOc1ccc(C(=O)N[C@@H](Cc2c[nH]c3ccccc23)C(=O)N[C@H](CC(N)=O)C(=O)N[C@@H](CC(=O)O)C(=O)N[C@@H]2C(=O)NCC(=O)N[C@@H](CCCN)C(=O)N[C@@H](CC(=O)O)C(=O)N[C@H](C)C(=O)N[C@@H](CC(=O)O)C(=O)NCC(=O)N[C@H](CO)C(=O)N[C@@H]([C@H](C)CC(=O)O)C(=O)N[C@@H](CC(=O)c3ccccc3N)C(=O)O[C@@H]2C)cc1 [Compound 37]		2	0.25				2	1	0.5	0.5	0.25
